Experimental data published in US6239129A, “Cyano-indole serotonin-reuptake inhibitor compounds” (Adir et Compagnie, priority 1999, dated 2001).
Structures can show the parent of a compound that is named as a salt.

Biological target: T1, Serotonin-reuptake Sites (Rattus norvegicus, UniProt P31652)
T1 construct: The membranes are prepared from rat frontal cortex; from tissue; host or cells: rat frontal cortex membranes
Test: Determination of Affinity for Serotonin-reuptake Sites in the Rat ([^3 H]-paroxetine competition)
Assay type: binding
Conditions: read-out: dissociation constant Ki
Experimental: Determination of Affinity for Serotonin-reuptake Sites in the Rat
The incubation buffer contains 50 mM TRIS-HCl (pH 7.4), 120 mM NaCl and 5 mM KCl. Non-specific binding is determined using 10 μM citalopram. At the end of the incubation, the mixture is filtered through filters and washed three times with 5 ml of cooled buffer. The radioactivity retained on the filters is determined by liquid scintillation counting. The binding isotherms are analysed by non-linear regression to determine the IC50 values. The latter are converted into a dissociation constant (Ki) using the Cheng-Prusoff equation: […]

T1 sequence (P31652 whole entry): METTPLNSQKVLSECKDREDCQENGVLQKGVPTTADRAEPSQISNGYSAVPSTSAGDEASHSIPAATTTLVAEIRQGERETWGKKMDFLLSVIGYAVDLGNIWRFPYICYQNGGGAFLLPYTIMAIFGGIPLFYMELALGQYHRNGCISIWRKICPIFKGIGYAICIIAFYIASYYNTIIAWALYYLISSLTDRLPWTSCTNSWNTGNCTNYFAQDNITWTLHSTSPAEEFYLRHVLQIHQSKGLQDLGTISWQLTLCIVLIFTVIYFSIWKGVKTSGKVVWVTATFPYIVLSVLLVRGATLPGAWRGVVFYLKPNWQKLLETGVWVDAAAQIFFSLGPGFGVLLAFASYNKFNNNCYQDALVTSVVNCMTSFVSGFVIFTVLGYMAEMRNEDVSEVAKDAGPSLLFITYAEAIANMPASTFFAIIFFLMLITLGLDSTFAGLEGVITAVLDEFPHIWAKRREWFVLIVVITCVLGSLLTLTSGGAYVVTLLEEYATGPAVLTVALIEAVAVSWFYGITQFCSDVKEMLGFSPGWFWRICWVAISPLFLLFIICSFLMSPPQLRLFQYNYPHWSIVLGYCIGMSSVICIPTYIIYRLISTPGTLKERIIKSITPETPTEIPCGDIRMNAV

COc1cncnc1N1CCN(CCCn2ccc3ccc(C#N)cc32)CC1 [Example 1, 1-{3-[4-(5-Methoxy-4-pyrimidinyl)-1-piperazinyl]propyl}-1H-indole-6-carbonitrile dihydrochloride]
Ki: 9.8 nM
